# In patent publication US12624040B2, “Compositions of substituted pyrazolopyrimidines and uses thereof” (KSQ Therapeutics, Inc., priority 2020, dated 2026):
# Tests used:
# [1] = Aqueous solubility / BCS classification; type: physicochemical; details: for BCS class: low solubility/high permeability; for Solubility in water: physiological pHs (from pH 1.5-8.0)
# Excerpt: Studies of these compounds indicate that these compounds are BCS class II compounds (low solubility/high permeability). […] Poor bioavailability is also often accompanied by highly variable patient blood levels and unpredictable dose/therapeutic effects due to erratic absorption of the drug by the patient. Accordingly, a need exists for compositions and methods to increase the solubility of these compounds.
BCS class [1],Solubility in water [1],Bioavailability (Bioavailability),SMILES
BCS class II,poorly soluble,low bioavailability,"COc1ncnc(C2CC2)c1-c1ncc2cnn(Cc3ccc(-c4nc(C(F)(F)F)cn4C(C)C)cc3)c2n1 [Formula II, 6-(4-cyclopropyl-6-methoxypyrimidin-5-yl)-1-(4-(1-isopropyl-4-(trifluoromethyl)-1H-imidazol-2-yl)benzyl)-1H-pyrazolo[3,4-d]pyrimidine]"
BCS class II,poorly soluble,low bioavailability,"COc1ncnc(C2CC2)c1-c1ncc2cnn(Cc3ccc(-n4nc(C(F)(F)F)cc4C)cc3)c2n1 [Formula III, 6-(4-cyclopropyl-6-methoxypyrimidin-5-yl)-1-(4-(5-methyl-3-(trifluoromethyl)-1H-pyrazol-1-yl)benzyl)-1H-pyrazolo[3,4-d] pyrimidine]"
